Read-outs that look alike come from different tables or passages of the source.
Key:
[1] = target: human DRD3; details: cited from earlier work
[2] = target: T1, human recombinant DRD3 (Homo sapiens, UniProt P35462); assay: [3H]-methylspiperone binding inhibition, human recombinant DRD3 in CHO cells (Eurofins Discovery assay #48); details: for inhibition at 10 µM: 10 μM competitor, single concentration, mean of two independent experiments, CHO cells, read-out: percentage of inhibition of [3H]-methylspiperone binding; for ligand efficiency (LE): SpaceDock hits, LE as in ref 53; for Ki: from six concentrations dose-response curves, read-out: inhibition constant (Ki)
T1 construct: host or cells: CHO cells
Description: Fig. S8. Binding of six SpaceDock hits to the human dopamine D3 receptor, expressed by the
percentage of inhibition of [3H]‐methylspiperone binding to human recombinant DRD3 in CHO cells
(Eurofins‐Discovery assay #48). Inhibition constants (Ki) were determined from six concentrations

T1 sequence (P35462 whole entry): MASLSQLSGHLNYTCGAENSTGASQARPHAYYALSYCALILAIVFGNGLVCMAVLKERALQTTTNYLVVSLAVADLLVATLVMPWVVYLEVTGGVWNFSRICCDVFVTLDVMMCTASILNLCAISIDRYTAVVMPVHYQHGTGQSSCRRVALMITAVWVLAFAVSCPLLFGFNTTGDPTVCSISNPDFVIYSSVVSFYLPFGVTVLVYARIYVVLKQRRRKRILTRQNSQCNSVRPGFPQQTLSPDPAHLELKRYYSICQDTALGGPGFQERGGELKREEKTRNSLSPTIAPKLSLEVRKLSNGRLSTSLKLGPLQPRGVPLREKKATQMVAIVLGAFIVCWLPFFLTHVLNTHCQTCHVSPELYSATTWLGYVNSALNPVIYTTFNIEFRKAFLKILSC

Which Ki ([1]; closest ChEMBL ligand) does the source give for `COc1cc2c(c(C(=O)NC[C@H]3CCCN3Cc3ccccc3)c1)OCC2` [CHEMBL148352] here?
The Ki was 120 nM.

Which inhibition at 10 µM [2] does the source give for `CCc1ccc2occ(C(=O)NCC3CCCN(CC)C3)c2c1` (stereo not drawn) [#33] here?
The inhibition at 10 µM was 34.3 ± 1.3%.

With `Cc1ccc(C)c(C(=O)NCCCCN2CCN(c3cc(C)ccc3C)CC2)c1` [CHEMBL1258495] as the compound, how does the Ki ([1]; closest ChEMBL ligand) read?
Its Ki is 28 nM.

With `CC(C)N(CCNC(=O)c1cn(C)nc1C1CCOC1)C1CC1` (stereo not drawn) [#36] as the compound, how does the inhibition at 10 µM [2] read?
Its inhibition at 10 µM is 21.3 ± 0.4%.

For `CCc1cc(Cl)c(OC)c(C(=O)NC[C@@H]2CCCN2CC)c1O` [Eticlopride, eticlopride], which Ki ([1]; eticlopride, in Figure 4A) is on record?
The Ki was 0.12 nM.

For `CCN(CC)CCNC(=O)c1cc(Cl)c(N)cc1OC` [CHEMBL86], which Ki ([1]; closest ChEMBL ligand) is on record?
The Ki was 23 nM.

Which inhibition at 10 µM [2] does the source give for `Cc1ccc(C(CNC(=O)c2cc(C)nc3c2cnn3C)N2CCCC2)cc1` (stereo not drawn) [#252] here?
Its inhibition at 10 µM is 26.2 ± 0.8%.

Which results are given for `CCCN(CCC)CCNC(=O)c1cccc2c(C)c(C)[nH]c12` [#25]?
inhibition at 10 µM [2]: 90.7 ± 1.6%; ligand efficiency (LE) [2]: 0.36; Ki [2]: 1400 nM

With `CCc1cc2c(c(C(=O)NCCN(C(C)C)C3CC3)c1)OCC2` [#1] as the compound, how does the inhibition at 10 µM [2] read?
The inhibition at 10 µM was 95.1 ± 1.1%.

What about the “ligand efficiency (LE)” value [2] of the same compound?
Its value is 0.40.

What about the Ki [2] of the same compound?
The Ki was 360 nM.

Which results are given for `CCCN(CC)CCNC(=O)c1nn(C)c2c1CSCC2` [#161]?
inhibition at 10 µM [2]: 72.6 ± 0.9%; ligand efficiency (LE) [2]: 0.39; Ki [2]: 1650 nM

With `CCN(CC)CC(CC)(CC)NC(=O)c1cccc2nc(C)sc12` [#110] as the compound, how does the inhibition at 10 µM [2] read?
The inhibition at 10 µM was -5.1 ± 4.5%.

For `CCCN(CCCCNC(=O)c1cccc2cc[nH]c12)CC1CC1c1cccc(F)c1` (stereo not drawn) [CHEMBL4590839], which Ki ([1]; closest ChEMBL ligand) is on record?
The Ki was 18.8 nM.

Which inhibition at 10 µM [2] does the source give for `CCN1CCC[C@H]1CNC(=O)c1c(-c2ccccc2)noc1C` [#239] here?
The inhibition at 10 µM was 3.5 ± 3.1%.

With `CCc1oc(C)cc1C(=O)NCC1CCN(CC)CC1` [#97] as the compound, how does the inhibition at 10 µM [2] read?
The inhibition at 10 µM was 13.6 ± 0.2%.

Which inhibition at 10 µM [2] does the source give for `CCCN1CCCC1CNC(=O)c1c[nH]cc1-c1ccccc1` (stereo not drawn) [#66] here?
The inhibition at 10 µM was 88.2 ± 0.8%.

And the “ligand efficiency (LE)” value [2]?
Its value is 0.40.

And the Ki [2]?
Its Ki is 320 nM.

For `CCCN(CC)CCNC(=O)c1cc(Br)cc2[nH]cnc12` [#142], which inhibition at 10 µM [2] is on record?
The inhibition at 10 µM was 88.7 ± 0.1%.

And the “ligand efficiency (LE)” value [2]?
Its value is 0.43.

And the Ki [2]?
Its Ki is 401 nM.

Which Ki ([1]; closest ChEMBL ligand) does the source give for `C#CC1CCC(N(CCC)CCCCNC(=O)c2ccc(OCCCc3cnn(CCCC)n3)c(OC)c2)CC1` (stereo not drawn) [CHEMBL2397478] here?
Its Ki is 1 nM.

Which inhibition at 10 µM [2] does the source give for `CCCN(CCC)CCNC(=O)C1CCc2cnn(C)c2C1` (stereo not drawn) [#35] here?
Its inhibition at 10 µM is 13.7 ± 1.2%.

Which inhibition at 10 µM [2] does the source give for `Cc1nc2sccn2c1C(=O)NCC1CCCCC1N1CCCC1` (stereo not drawn) [#215] here?
Its inhibition at 10 µM is 4.7 ± 1.8%.

Which inhibition at 10 µM [2] does the source give for `CCCN(CCNC(=O)c1cccc2sccc12)C(C)C` [#107] here?
The inhibition at 10 µM was 80.2 ± 0.5%.

And the “ligand efficiency (LE)” value [2]?
The value was 0.39.

And the Ki [2]?
Its Ki is 1570 nM.

For `CCCN(CCC)CCNC(=O)c1cccc2oc(C)nc12` [#256], which inhibition at 10 µM [2] is on record?
Its inhibition at 10 µM is 44.4 ± 0.8%.

— publication PMC10979501, “Protein Structure-Based Organic Chemistry-Driven Ligand Design from Ultralarge Chemical Spaces” (ACS Central Science, 2024)
